Peptide text beside a SMILES is read from it.
Columns and labels:
[1] = target: T1, Serine/threonine-protein kinase B-raf (Homo sapiens, UniProt P15056); test: Binding affinity to BRAF (unknown origin) by intrinsic tryptophan fluorescence assay
[2] = target: T1, Serine/threonine-protein kinase B-raf; test: Inhibition of BRAF in NRAS Q61K mutant-driven human SBcl2 cells assessed as suppression of vemurafenib-induced phosphorylation of MEK expression administered via electroporation for 30 mins followed by vemurafenib addition and measured after 1 hr by Western blot analysis
[3] = tested on: MCF-10A; test: Antiproliferative activity against EGF-dependent human MCF10A cells assessed as inhibition of colony growth at 2 uM supplemented with fresh medium containing compound every 2 days for 11 days; assay type: functional
[4] = target: T1, Serine/threonine-protein kinase B-raf; test: Inhibition of BRAF in NRAS Q61K mutant-driven human SBcl2 cells assessed as suppression of vemurafenib-induced phosphorylation of ERK expression at 300 uM administered via electroporation for 30 mins followed by vemurafenib addition and measured after 1 hr by Western blot analysis
[5] = target: T1, Serine/threonine-protein kinase B-raf; test: Inhibition of BRAF in NRAS Q61K mutant-driven human SBcl2 cells assessed as suppression of vemurafenib-induced phosphorylation of ERK expression administered via electroporation for 30 mins followed by vemurafenib addition and measured after 1 hr by Western blot analysis
[6] = target: T1, Serine/threonine-protein kinase B-raf; test: Inhibition of BRAF in NRAS Q61K mutant-driven human SBcl2 cells assessed as suppression of vemurafenib-induced phosphorylation of MEK expression at 300 uM administered via electroporation for 30 mins followed by vemurafenib addition and measured after 1 hr by Western blot analysis
[7] = tested on: MCF-10A; test: Antiproliferative activity against EGF-dependent human MCF10A cells assessed as inhibition of colony growth at 1.5 uM supplemented with fresh medium containing compound every 2 days for 11 days; assay type: functional

T1 sequence (P15056 whole entry): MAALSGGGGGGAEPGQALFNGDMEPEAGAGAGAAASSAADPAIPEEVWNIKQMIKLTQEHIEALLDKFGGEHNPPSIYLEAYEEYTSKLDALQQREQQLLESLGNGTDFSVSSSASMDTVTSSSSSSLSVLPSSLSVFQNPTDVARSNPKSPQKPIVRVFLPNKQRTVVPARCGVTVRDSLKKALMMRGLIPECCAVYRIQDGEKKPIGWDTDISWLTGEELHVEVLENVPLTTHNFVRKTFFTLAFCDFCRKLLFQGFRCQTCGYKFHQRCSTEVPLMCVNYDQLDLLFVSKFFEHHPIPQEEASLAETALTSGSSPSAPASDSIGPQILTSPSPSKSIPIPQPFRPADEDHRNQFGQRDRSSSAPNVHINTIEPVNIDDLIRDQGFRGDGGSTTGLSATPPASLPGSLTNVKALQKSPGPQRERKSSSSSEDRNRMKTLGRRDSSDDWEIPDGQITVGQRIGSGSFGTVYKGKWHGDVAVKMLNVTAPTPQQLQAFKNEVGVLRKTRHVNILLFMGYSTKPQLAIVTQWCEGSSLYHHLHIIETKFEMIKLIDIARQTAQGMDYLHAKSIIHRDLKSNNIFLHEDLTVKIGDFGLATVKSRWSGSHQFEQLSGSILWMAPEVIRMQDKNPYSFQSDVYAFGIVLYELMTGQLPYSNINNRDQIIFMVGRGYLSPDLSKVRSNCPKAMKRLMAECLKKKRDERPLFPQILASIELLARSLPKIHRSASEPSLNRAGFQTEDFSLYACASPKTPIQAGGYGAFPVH

## CSCC[C@@H]1NC(=O)[C@H](Cc2ccccc2)NC(=O)[C@H](CC(C)C)NC(=O)[C@H](CC(C)C)NC(=O)[C@H](CCC(=O)O)NC(=O)[C@H](CC(N)=O)NC(=O)[C@H](C(C)C)NC(=O)[C@H](Cc2cnc[nH]2)NC(=O)[C@H](CCCNC(=N)N)NC(=O)[C@H](CCCCN)NC(=O)[C@H](CCCCN)NC(=O)[C@H](CCCNC(=N)N)NC(=O)[C@H](CC(C)C)NC(=O)CNC1=O
[1]; read-out: Kd
  Kd: 1.89 µM

## CC[C@H](C)[C@H](NC(=O)[C@H](CC(N)=O)NC(=O)[C@@H](NC(=O)[C@H](Cc1cnc[nH]1)NC(=O)[C@H](CCCNC(=N)N)NC(=O)[C@@H](NC(=O)[C@H](CCCCN)NC(=O)[C@H](CCCNC(=N)N)NC(=O)[C@H](CC(C)C)NC(=O)[C@@H](NC(=O)CN)C(C)C)[C@@H](C)O)C(C)C)C(=O)N[C@@H](CC(C)C)C(=O)N[C@@H](CC(C)C)C(=O)N[C@@H](Cc1ccccc1)C(=O)N[C@@H](CCSC)C(=O)NCC(=O)N[C@@H](Cc1ccc(O)cc1)C(=O)N[C@@H](CO)C(=O)N[C@H](C(=O)O)[C@@H](C)O
[2]
  inhibition: Dose-dependent effect
[3]
  inhibition (INH): 100%
[4]
  inhibition: 100%
[5]
  inhibition: Dose-dependent effect
[6]
  inhibition: 100%

## CC[C@H](C)[C@H](NC(=O)[C@H](CC(N)=O)NC(=O)[C@@H](NC(=O)[C@H](Cc1cnc[nH]1)NC(=O)[C@H](CCCNC(=N)N)NC(=O)[C@@H](NC(=O)[C@H](CCCCN)NC(=O)[C@H](CCCNC(=N)N)NC(=O)[C@H](CC(C)C)NC(=O)[C@@H](N)C(C)C)[C@@H](C)O)C(C)C)C(=O)N[C@@H](CC(C)C)C(=O)N[C@@H](CC(C)C)C(=O)N[C@@H](Cc1ccccc1)C(=O)N[C@@H](CCSC)C(=O)NCC(=O)O
[7]
  inhibition (INH): 100%

## CC[C@H](C)[C@H](NC(=O)[C@H](CC(N)=O)NC(=O)[C@@H](NC(=O)[C@H](Cc1cnc[nH]1)NC(=O)[C@H](CCCNC(=N)N)NC(=O)[C@@H](NC(=O)[C@H](CCCCN)NC(=O)[C@H](CCCNC(=N)N)NC(=O)[C@H](CC(C)C)NC(=O)[C@@H](NC(=O)CN)C(C)C)[C@@H](C)O)C(C)C)C(=O)N[C@@H](C)C(=O)N[C@@H](CC(C)C)C(=O)N[C@@H](Cc1ccccc1)C(=O)N[C@@H](CCSC)C(=O)NCC(=O)N[C@@H](Cc1ccc(O)cc1)C(=O)N[C@@H](CO)C(=O)N[C@H](C(=O)O)[C@@H](C)O
[1]; read-out: Kd
  Kd: 9.8 µM

## CC[C@H](C)[C@H](NC(=O)[C@H](CC(N)=O)NC(=O)[C@@H](NC(=O)[C@H](Cc1ccccc1)NC(=O)[C@H](CCCNC(=N)N)NC(=O)[C@@H](NC(=O)[C@H](CCCCN)NC(=O)[C@H](CCCNC(=N)N)NC(=O)[C@H](CC(C)C)NC(=O)[C@@H](NC(=O)CN)C(C)C)[C@@H](C)O)C(C)C)C(=O)N[C@@H](CC(C)C)C(=O)N[C@@H](CC(C)C)C(=O)N[C@@H](Cc1ccccc1)C(=O)N[C@@H](CCSC)C(=O)NCC(=O)N[C@@H](Cc1ccc(O)cc1)C(=O)N[C@@H](CO)C(=O)N[C@H](C(=O)O)[C@@H](C)O
[1]
  Kd: Not Active

## CC[C@H](C)[C@H](NC(=O)[C@H](CC(N)=O)NC(=O)[C@H](C)NC(=O)[C@H](Cc1cnc[nH]1)NC(=O)[C@H](CCCNC(=N)N)NC(=O)[C@@H](NC(=O)[C@H](CCCCN)NC(=O)[C@H](CCCNC(=N)N)NC(=O)[C@H](CC(C)C)NC(=O)[C@@H](NC(=O)CN)C(C)C)[C@@H](C)O)C(=O)N[C@@H](CC(C)C)C(=O)N[C@@H](CC(C)C)C(=O)N[C@@H](Cc1ccccc1)C(=O)N[C@@H](CCSC)C(=O)NCC(=O)N[C@@H](Cc1ccc(O)cc1)C(=O)N[C@@H](CO)C(=O)N[C@H](C(=O)O)[C@@H](C)O
[1]; read-out: Kd
  Kd: 4.75 µM

## CC[C@H](C)[C@H](NC(=O)[C@H](CC(N)=O)NC(=O)[C@@H](NC(=O)[C@H](Cc1cnc[nH]1)NC(=O)[C@H](CCCNC(=N)N)NC(=O)[C@@H](NC(=O)[C@H](CCCCN)NC(=O)[C@H](CC(C)C)NC(=O)[C@H](CC(C)C)NC(=O)[C@@H](NC(=O)CN)C(C)C)[C@@H](C)O)C(C)C)C(=O)N[C@@H](CC(C)C)C(=O)N[C@@H](CC(C)C)C(=O)N[C@@H](Cc1ccccc1)C(=O)N[C@@H](CCSC)C(=O)NCC(=O)N[C@@H](Cc1ccc(O)cc1)C(=O)N[C@@H](CO)C(=O)N[C@H](C(=O)O)[C@@H](C)O
[1]; read-out: Kd
  Kd: 0.54 µM

## CC[C@H](C)[C@H](NC(=O)[C@H](CC(N)=O)NC(=O)[C@@H](NC(=O)[C@H](Cc1cnc[nH]1)NC(=O)[C@H](Cc1cnc[nH]1)NC(=O)[C@@H](NC(=O)[C@H](CCCCN)NC(=O)[C@H](CCCNC(=N)N)NC(=O)[C@H](CC(C)C)NC(=O)[C@@H](NC(=O)CN)C(C)C)[C@@H](C)O)C(C)C)C(=O)N[C@@H](CC(C)C)C(=O)NCC(=O)N[C@@H](Cc1ccccc1)C(=O)N[C@@H](Cc1c[nH]c2ccccc12)C(=O)NCC(=O)N[C@@H](Cc1ccc(O)cc1)C(=O)N[C@@H](CO)C(=O)N[C@H](C(=O)O)[C@@H](C)O (H-GVLRKTHHVNILGFWGYST-OH)
[1]
  Kd: Not Active

## CC[C@H](C)[C@H](NC(=O)[C@H](C)NC(=O)[C@@H](NC(=O)[C@H](Cc1cnc[nH]1)NC(=O)[C@H](CCCNC(=N)N)NC(=O)[C@@H](NC(=O)[C@H](CCCCN)NC(=O)[C@H](CCCNC(=N)N)NC(=O)[C@H](CC(C)C)NC(=O)[C@@H](N)C(C)C)[C@@H](C)O)C(C)C)C(=O)N[C@@H](CC(C)C)C(=O)N[C@@H](CC(C)C)C(=O)N[C@@H](Cc1ccccc1)C(=O)N[C@@H](CCSC)C(=O)NCC(=O)O (H-VLRKTRHVAILLFMG-OH)
[1]
  Kd: Not Active

## CC[C@H](C)[C@H](NC(=O)[C@H](CC(N)=O)NC(=O)[C@@H](NC(=O)[C@H](Cc1cnc[nH]1)NC(=O)[C@H](CCCNC(=N)N)NC(=O)[C@H](CC(=O)O)NC(=O)[C@H](CCCCN)NC(=O)[C@H](CCCNC(=N)N)NC(=O)[C@H](CC(C)C)NC(=O)[C@@H](NC(=O)CN)C(C)C)C(C)C)C(=O)N[C@@H](CC(C)C)C(=O)N[C@@H](CC(C)C)C(=O)N[C@@H](Cc1ccccc1)C(=O)N[C@@H](CCSC)C(=O)NCC(=O)N[C@@H](Cc1ccc(O)cc1)C(=O)N[C@@H](CO)C(=O)N[C@H](C(=O)O)[C@@H](C)O
[1]; read-out: Kd
  Kd: 2.2 µM

## CC[C@H](C)[C@H](NC(=O)[C@H](CC(N)=O)NC(=O)[C@@H](NC(=O)[C@H](Cc1cnc[nH]1)NC(=O)[C@H](CCCNC(=N)N)NC(=O)[C@@H](NC(=O)[C@H](CCCCN)NC(=O)[C@H](CCCNC(=N)N)NC(=O)[C@H](CC(C)C)NC(=O)[C@@H](NC(=O)CN)C(C)C)[C@@H](C)O)C(C)C)C(=O)N[C@@H](CC(C)C)C(=O)N[C@@H](CC(C)C)C(=O)N[C@@H](Cc1ccccc1)C(=O)N[C@@H](CCSC)C(=O)NCC(=O)O (H-GVLRKTRHVNILLFMG-OH)
[1]; read-out: Kd
  Kd: 1.88 µM

## CC[C@H](C)[C@H](NC(=O)[C@H](CC(N)=O)NC(=O)[C@@H](NC(=O)[C@H](Cc1cnc[nH]1)NC(=O)[C@H](CCCNC(=N)N)NC(=O)[C@@H](NC(=O)[C@H](CCCCN)NC(=O)[C@H](CCCNC(=N)N)NC(=O)[C@H](CC(C)C)NC(=O)[C@@H](NC(=O)CN)C(C)C)[C@@H](C)O)C(C)C)C(=O)N[C@@H](CC(C)C)C(=O)N[C@@H](CC(C)C)C(=O)N[C@@H](CC(=O)O)C(=O)N[C@@H](CCSC)C(=O)NCC(=O)N[C@@H](Cc1ccc(O)cc1)C(=O)N[C@@H](CO)C(=O)N[C@H](C(=O)O)[C@@H](C)O
[1]
  Kd: Not Active

## CC[C@H](C)[C@H](NC(=O)[C@H](CC(C)C)NC(=O)[C@@H](NC(=O)[C@H](CC(N)=O)NC(=O)[C@@H](NC(=O)[C@H](Cc1cnc[nH]1)NC(=O)[C@H](CCCNC(=N)N)NC(=O)[C@@H](NC(=O)[C@H](CCCCN)NC(=O)[C@H](CCCNC(=N)N)NC(=O)[C@H](CC(C)C)NC(=O)[C@@H](NC(=O)CN)C(C)C)[C@@H](C)O)C(C)C)[C@@H](C)CC)C(=O)N[C@@H](Cc1ccccc1)C(=O)N[C@@H](CCSC)C(=O)NCC(=O)N[C@@H](Cc1ccc(O)cc1)C(=O)N[C@@H](CO)C(=O)N[C@H](C(=O)O)[C@@H](C)O
[1]; read-out: Kd
  Kd: 4.1 µM

## CC[C@H](C)[C@H](NC(=O)[C@H](CC(N)=O)NC(=O)[C@@H](NC(=O)[C@H](Cc1cnc[nH]1)NC(=O)[C@H](CCCNC(=N)N)NC(=O)[C@@H](NC(=O)[C@H](CCCCN)NC(=O)[C@H](CCC(=O)O)NC(=O)[C@H](CC(C)C)NC(=O)[C@@H](NC(=O)CN)C(C)C)[C@@H](C)O)C(C)C)C(=O)N[C@@H](CC(C)C)C(=O)N[C@@H](CC(C)C)C(=O)N[C@@H](Cc1ccccc1)C(=O)N[C@@H](CCSC)C(=O)NCC(=O)N[C@@H](Cc1ccc(O)cc1)C(=O)N[C@@H](CO)C(=O)N[C@H](C(=O)O)[C@@H](C)O
[1]; read-out: Kd
  Kd: 1.09 µM
